According to article PMC7279487, “Dual Target Ligands with 4-tert-Butylphenoxy Scaffold as Histamine H3 Receptor Antagonists and Monoamine Oxidase B Inhibitors” (International Journal of Molecular Sciences, 2020):

What was measured:
[1] = test system: neuroblastoma SH-SY5Y cells; assay: neuroprotection in H2O2-treated SH-SY5Y cells (MTS); type: cell-based; details: 50 µM; H2O2 300 µM; 24 h
Protocol: The used reference cytostatic drug doxorubicin (DX) decreased cell viability <50% under the same conditions at very low concentrations of 0.2 and 0.05 µM. […] Oxidative damage was induced by very high toxic levels of hydrogen peroxide (H2O2; 300 µM), the popular cell model for PD research, in neuroblastoma SH-SY5Y cell line. […] Salsolinol (SAL) was used at a concentration of 50 µM as the reference compound with the proven neuroprotection activity.
SH-SY5Y cells were seeded in microplate at a concentration of 2.5 × 10^4 cells/well in 100 μL culture medium and cultured for 24 h at 37 C and 5% CO2 to reach 70% confluence. […] (R,S)-salsolinol (purity ≥ 99%) was obtained from Cayman Chemical (Ann Arbor, MI, USA). Next, H2O2 was added at final concentration 300 μM and the cells were placed into the incubator. After 24 h of compounds co-incubation with H2O2, the CellTiter 96®AQueous Non-Radioactive Cell Proliferation Assay (MTS) labeling mixture was added to each well, and the microplates were incubated under the same conditions for 5 h. The absorbance was measured using a microplate reader EnSpire (PerkinElmer, Waltham, MA USA) at 490 nm. All measurements were performed in triplicate, and results are shown as mean ± SD.

hH3R = details: read-out: hH3R Ki; cited from earlier work
hMAO B [2] = target: T1, hMAO B (Homo sapiens, UniProt P27338); assay: hMAO B inhibition, fluorometric Amplex Red MAO assay; type: biochemical; details: for IC50: mean ± SEM of 2-5 independent experiments, p-tyramine 200 μM
T1 construct: purchased Sigma Aldrich M7441
T1 sequence (P27338 1-520): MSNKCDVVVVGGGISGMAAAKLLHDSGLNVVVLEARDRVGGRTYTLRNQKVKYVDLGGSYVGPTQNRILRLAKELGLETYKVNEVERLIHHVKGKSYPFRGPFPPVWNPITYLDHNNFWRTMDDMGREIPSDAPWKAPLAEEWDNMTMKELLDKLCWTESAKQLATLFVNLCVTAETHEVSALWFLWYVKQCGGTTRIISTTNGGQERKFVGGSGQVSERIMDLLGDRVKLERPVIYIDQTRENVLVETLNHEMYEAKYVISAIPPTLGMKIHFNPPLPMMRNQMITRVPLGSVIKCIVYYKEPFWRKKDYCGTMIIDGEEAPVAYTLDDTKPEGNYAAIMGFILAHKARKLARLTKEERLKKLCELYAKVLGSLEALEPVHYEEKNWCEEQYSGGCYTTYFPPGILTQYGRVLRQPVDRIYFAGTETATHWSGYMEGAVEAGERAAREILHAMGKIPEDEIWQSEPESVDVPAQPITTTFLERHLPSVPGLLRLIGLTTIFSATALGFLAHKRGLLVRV

[3] = target: T2, human histamine H3 receptor (hH3R) (Homo sapiens, UniProt Q9Y5N1); assay: radioligand displacement binding assay, [3H]Nα-methylhistamine, HEK293 cells stably expressing hH3R; details: HEK293 cells stably expressing human H3R, mean (95% CI)
T2 construct: expressed in transfected cells
Protocol: [^3H]N^α-methylhistamine was used as a radioligand.
The radioligand displacement binding assay was carried out in HEK-293 cells stably expressing the recombinant hH3R as described by Kottke et al. with slight modifications. […] Obtained data from at least three experiments (in at least duplicates) were analyzed with GraphPad Prism 6.1 (San Diego, CA, USA) using nonlinear regression (one-site competition on logarithmic scale), and Ki values were transformed from IC50 according to Cheng-Prusoff. Statistical analysis was performed on −log Ki values.

hMAO B [4] = target: T1, hMAO B; assay: hMAO B reversibility studies; type: biochemical; details: inhibitor at IC80; for effect of 30 min preincubation with enzyme on hMAO B inhibition: with vs without preincubation; for type of hMAO B inhibition (reversible or irreversible): without preincubation, compared with safinamide and rasagiline
Protocol: Reversibility of MAO B inhibitors was tested as described previously with slight modification. Two experiments were performed simultaneously. In the first experiment, inhibitors (in concentrations corresponding to their IC80 values) were incubated with the enzyme and p-tyramine (10 μM) for 22 min (measuring fluorescence every two minutes).

human MAO A = target: T3, human MAO A (Homo sapiens, UniProt P21397); assay: hMAO A inhibition, fluorometric Amplex Red MAO assay; type: biochemical; details: for IC50: mean ± SEM, p-tyramine 200 μM; for inhibition at 10 µM: percent of inhibition at 10 μM, mean of two independent experiments, read-out: MAO A (%Inh.)
T3 construct: purchased Sigma Aldrich M7316
T3 sequence (P21397 1-527): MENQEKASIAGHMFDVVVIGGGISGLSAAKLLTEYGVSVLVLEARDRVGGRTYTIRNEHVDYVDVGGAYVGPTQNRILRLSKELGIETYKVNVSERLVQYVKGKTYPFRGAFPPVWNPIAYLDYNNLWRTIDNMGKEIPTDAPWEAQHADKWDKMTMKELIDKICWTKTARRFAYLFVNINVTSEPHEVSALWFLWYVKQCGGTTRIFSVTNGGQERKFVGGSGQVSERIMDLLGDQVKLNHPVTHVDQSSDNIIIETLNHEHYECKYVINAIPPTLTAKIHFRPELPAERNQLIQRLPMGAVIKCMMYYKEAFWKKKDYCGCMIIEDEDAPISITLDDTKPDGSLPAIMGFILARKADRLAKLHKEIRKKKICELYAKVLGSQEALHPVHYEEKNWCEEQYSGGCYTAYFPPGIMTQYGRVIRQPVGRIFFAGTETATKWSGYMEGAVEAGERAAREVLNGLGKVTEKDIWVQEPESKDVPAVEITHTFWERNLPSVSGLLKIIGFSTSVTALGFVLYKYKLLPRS
Protocol: Inhibitory potency of compounds on MAO isoenzymes were carried out by a fluorometric method with a commercial Amplex™ Red Monoamine Oxidase Assay Kit (ThermoFisher Scientific A12214, Waltham, MA, USA) as described previously. For all tests, recombinant human MAO B and MAO A (from Sigma AldrichM7441 and M7316, Darmstadt, Germany) were used. Inhibitors’ activity was measured in the presence of p-tyramine (200 μM).
[…] […] All calculations were made in Microsoft Excel and GraphPadPrism software. All experiments were performed in duplicate, and data are expressed as mean ± SEM of 2–5 independent experiments.

hMAO B [5] = target: T1, hMAO B; assay: hMAO B kinetic studies (Michaelis-Menten, Lineweaver-Burk); type: biochemical
Protocol: Results from the kinetic experiment were used for determination of Michaelis–Menten curves (Figure 4A,C). […] From Michaelis–Menten curves, Vmax and KM values were fitted (Table 2). For both compounds, Vmax values decreased curvilinearly and KM values increased curvilinearly with the increased inhibitor concentrations.
The mode of the inhibition was tested according to the standard procedure described in Reversibility Studies using different concentrations of the substrate. […] Substrate was used in six concentrations: […], 0.1 mM, 0.5 mM, 1 mM, 1.5 mM, and 2 mM. After the experiment, velocities were calculated and put on the graph (y-axis) against the concentration of the substrate (x-axis). From the Michaelis–Menten plot Vmax, KM, and α values were calculated for different concentrations of the inhibitor. Double-reciprocal plot (Lineweaver–Burk plot) were prepared to display the data.
The α values for different modes of reversible inhibition as well as their diagnostic signature on […]
The α value for compound 9 was calculated by GraphPad Prism software from the nonlinear regression curves using following equation for mixed- […]
v = Vmax*[S] / [S]*(1+ [I]/ αKi) + KM*(1+ [I]/Ki) (1) v – velocity of enzyme reaction. Vmax - maximum velocity (at infinite substrate concentration); Ki – dissociation constant for Enzyme-Inhibitor complex (in the enzymology literature other symbols can be used such as: Ki, Kii , KEI etc.); αKi – dissociation constant for Enzyme-Substrate-Inhibitor complex (in the literature also under the symbols: Ki’, Kis and KES); KM – Michaelis-Menten constant; [I]– concentration of the inhibitor; [S] – concentration of the substrate [Ref S1].
Table S1. Relation between inhibition modality, α value, and diagnostic signature on the double-reciprocal plots (i.e Lineweaver-Burk plot) [S2].
α Inhibition modality Diagnostic signature on […]
α = 1 (inhibitor binds to free enzyme lines converge at the x-axis and enzyme-substrate complex
(inhibitor can bind to free lines converge to the left of the α > 1 enzyme and enzyme-substrate y-axis and above the x-axis complex unequally), inhibitor’s affinity is higher for free enzyme
(inhibitor can bind to free
α < 1 enzyme and enzyme-substrate lines converge to the left of the complex unequally), inhibitor’s y-axis and below the x-axis affinity is higher for the enzyme- […]
α → ∞ (inhibitor and substrate compete lines converge at the y-axis for the same site of binding) […]
α → 0 and α > 0 (inhibitor binds only to the parallel lines

[6] = concentration used in kinetic studies

T2 sequence (Q9Y5N1 whole entry): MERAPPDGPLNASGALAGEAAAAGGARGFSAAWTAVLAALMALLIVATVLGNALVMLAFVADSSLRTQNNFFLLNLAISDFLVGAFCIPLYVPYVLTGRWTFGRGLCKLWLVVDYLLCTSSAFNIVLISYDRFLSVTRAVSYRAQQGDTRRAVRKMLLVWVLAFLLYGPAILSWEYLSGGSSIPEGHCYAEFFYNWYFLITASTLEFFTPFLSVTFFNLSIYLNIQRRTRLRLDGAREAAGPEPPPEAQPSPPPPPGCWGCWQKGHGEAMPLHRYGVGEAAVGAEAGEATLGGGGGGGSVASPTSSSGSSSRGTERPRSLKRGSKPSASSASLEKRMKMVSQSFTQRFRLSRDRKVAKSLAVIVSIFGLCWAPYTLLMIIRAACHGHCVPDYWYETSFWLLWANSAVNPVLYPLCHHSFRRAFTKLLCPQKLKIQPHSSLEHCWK

SMILES | melting point | IC50 (hMAO B [2]) | Ki [3] | IC50 (human MAO A) | also measured
CC1NCCc2cc(O)c(O)cc21 (racemic) [SAL, (R,S)-salsolinol, reference compound] | – | – | – | – | cell survival of H2O2-damaged SH-SY5Y cells (neuroprotection) [1]: statistically significant increased cells viability
C#CCNC1CCc2cc(OCCCN3CCCCC3)ccc21 (stereo not shown) [Compound 1] | – | – | – | – | Ki (hH3R): 6.7 nM
O=C1/C(=C/c2ccc(OCCCN3CCCCC3)cc2)Cc2cc(OCc3ccc(Br)cc3)ccc21 [Compound 2] | – | – | – | – | Ki (hH3R): 6.5 nM
CCC(C)(C)c1ccc(OCCCN2CCCC2)cc1 [Compound 3] | – | – | – | – | Ki (hH3R): 63 nM
CC1CCCCN1CCCOc1ccc(C(C)(C)C)cc1.O=C(O)C(=O)O (stereo not shown) [Compound 9, 1-(3-(4-tert-Butylphenoxy)propyl)-2-methylpiperidine hydrogen oxalate] | 114 to 116 °C | 11 ± 1 nM | 69 nM | > 10000 nM | IC20 (hMAO B [2]; [6]): 0.2 nM; IC80 (hMAO B [2]; [6]): 40 nM; constant α (hMAO B [5]; calculated by GraphPad Prism from nonlinear regression, mixed-model inhibition): 1.6; mode of hMAO B inhibition (hMAO B [5]; from Vmax and KM behaviour and Lineweaver-Burk plot): mixed mode inhibition; Vmax (RFU/min) (hMAO B [5]; inhibitor concentration 0.2 nM): 1652 RFU/min; Vmax (RFU/min) (hMAO B [5]; inhibitor concentration 10 nM): 1544 RFU/min; Vmax (RFU/min) (hMAO B [5]; inhibitor concentration 40 nM): 1238 RFU/min; effect of 30 min preincubation with enzyme on hMAO B inhibition (hMAO B [4]): did not show differences between experiments with and without the preincubation; type of hMAO B inhibition (reversible or irreversible) (hMAO B [4]): reversible
CC1(C)CCCN(CCCOc2ccc(C(C)(C)C)cc2)C1.O=C(O)C(=O)O [Compound 16, 1-(3-(4-tert-Butylphenoxy)propyl)-3,3-dimethylpiperidine hydrogen oxalate] | 183 to 186 °C | 476 ± 38 nM | 1620 nM | > 10000 nM | –
CC1(C)CCCN(CCCCCOc2ccc(C(C)(C)C)cc2)C1.O=C(O)C(=O)O [Compound 18, 1-(5-(4-tert-Butylphenoxy)pentyl)-3,3-dimethylpiperidine hydrogen oxalate] | 150 to 153 °C | – | 3540 nM | > 10000 nM | inhibition at 10 µM (human MAO A): 19%
C[C@H](NCc1ccc(OCc2cccc(F)c2)cc1)C(N)=O [safinamide, reference compound] | – | – | – | – | effect of 30 min preincubation with enzyme on hMAO B inhibition (hMAO B [4]): did not show differences between experiments with and without the preincubation

Further lines, with some results ahead:

melting point | IC50 (hMAO B [2]) | Ki [3] | IC50 (human MAO A) | SMILES | also measured
147 to 149 °C | 2.7 ± 0.4 nM | 371 nM | – | CC(C)(C)c1ccc(OCCCN2CCCC2)cc1.O=C(O)C(=O)O [Compound 5, 1-(3-(4-tert-Butylphenoxy)propyl)pyrrolidine hydrogen oxalate] | effect of 30 min preincubation with enzyme on hMAO B inhibition (hMAO B [4]): did not show differences between experiments with and without the preincubation; type of hMAO B inhibition (reversible or irreversible) (hMAO B [4]): reversible
150 to 152 °C | 290 ± 7 nM | 309 nM | > 10000 nM | CC(C)(C)c1ccc(OCCCCN2CCCCC2)cc1.O=C(O)C(=O)O [Compound 6, 1-(4-(4-tert-Butylphenoxy)butyl)piperidine hydrogen oxalate] | –
107 to 110 °C | 475 ± 38 nM | 153 nM | > 10000 nM | CC1CCCCN1CCCCOc1ccc(C(C)(C)C)cc1.O=C(O)C(=O)O (stereo not shown) [Compound 10, 1-(4-(4-tert-Butylphenoxy)butyl)-2-methylpiperidine hydrogen oxalate] | –
141 to 143 °C | 117 ± 12 nM | 98 nM | > 10000 nM | CC1CCCN(CCCOc2ccc(C(C)(C)C)cc2)C1.O=C(O)C(=O)O (stereo not shown) [Compound 12, 1-(3-(4-tert-Butylphenoxy)propyl)-3-methylpiperidine hydrogen oxalate] | –
122 to 125 °C | – | 2580 nM | > 10000 nM | CC1(C)CCCN(CCCCCCOc2ccc(C(C)(C)C)cc2)C1.O=C(O)C(=O)O [Compound 19, 1-(6-(4-tert-Butylphenoxy)hexyl)-3,3-dimethylpiperidine hydrogen oxalate] | inhibition at 10 µM (human MAO A): 24%
138 to 140 °C | 45 ± 4 nM | 111 nM | > 10000 nM | CC(C)(C)c1ccc(OCCCN2CCCCCC2)cc1.O=C(O)C(=O)O [Compound 28, 1-(3-(4-tert-Butylphenoxy)propyl)-azepane hydrogen oxalate] | –
149 to 151 °C | – | 299 nM | > 10000 nM | CC(C)(C)c1ccc(OCCCCN2CCCCCC2)cc1.O=C(O)C(=O)O [Compound 29, 1-(4-(4-tert-Butylphenoxy)butyl)-azepane hydrogen oxalate] | inhibition at 10 µM (human MAO A): 23%
